Source: patent US8454991B2, “Method and device for photodynamic therapy” (Quest Pharmatech Inc., priority 2006, dated 2013)

What was measured:
EMT-6 tumor cells = assay: In vitro clonogenic assay (PDT phototoxic effect); type: cell-based; conditions: 2 hours incubation; for inhibition at 5 µM: Mus musculus
Experimental: The feasibility of using these alternative light sources as over the counter devices for topical PDT application is tested using an in vitro clonogenic assay to assess their ability to generate a phototoxic effect with SL-017, a known photosensitizer.
In vitro clonogenic assay. EMT-6 tumor cells are grown in culture in RPMI 1640 and plated onto Petri dishes. The photosensitizer SL-017 is added at a fixed concentration of 5 μM to the dishes and allowed to incubate for 2 hours, and then removed. The dishes are irradiated using the different two LED light sources and the orange (rhodamine 6G) chemiluminescent light source at pre-determined light doses. The EMT-6 cells are then re-plated and allowed to grow, for 5 to 7 days The number of surviving colonies in the control and treated plates are counted visually and compared.

mouse skin = type: in vivo, Male Balb/c mice
Experimental: The feasibility of using these alternative light sources as over the counter devices for topical PDT application is tested using an in vivo hair removal assay to assess their ability to generate a hair removal effect on mouse skin using SL-017, a known photosensitizer. Mouse strain. Male Balb/c mice of approximately 6 to 8 weeks of age weighing 16 to 18 grams were obtained from Charles River animal facility. The animals were allowed a minimum of 1 week to acclimatize to the facility prior to treatment. In vivo hair removal assay. The animals were anesthetized with a 0.1 ml intra peritoneal injection of 12 mg/ml sodium pentobarbital in 0.9% Saline. An approximately 1.5×1.5 cm square area on the back of each animal was shaved and the area treated with a 2% SL-017 topical gel for 60 minutes. The excess gel was removed from the area and it was covered with a template with a 1 cm diameter opening. The open area was treated with either 15 or 30 J/cm^2 of light from a LED flashlight. […] The mice were monitored once weekly for the re-growth of hair in the treated area. For the white LED, the treatment time required for the 15 J/cm^2 dose group was 5 minutes and 45 sec. while for the 30 J/cm^2 dose group was 11 minutes and 30 seconds. For the red LED, the treatment time required for the 15 J/cm^2 dose group was 45 minutes, and for the 30 J/cm^2 dose group was 90 minutes.

Compound: COc1c2c3c4c(c(NCCCN(C)C)c(=O)c5c(O)cc(OC)c(c6c(OC)cc(O)c(c1=O)c63)c54)C=C(C)C2C(C)=O (stereo not shown) [SL-017]
- inhibition at 5 µM (EMT-6 tumor cells; EMT6, SL-017 5 μM, orange (rhodamine 6G) chemiluminescent light stick, 1 hour exposure): 31.3%
- inhibition at 5 µM (EMT-6 tumor cells; EMT6, light or radiation study, 2 h, SL-017 5 μM, red LED light (3 W), 0.1 J/cm^2): 100%
- inhibition at 5 µM (EMT-6 tumor cells; EMT6, light or radiation study, 2 h, SL-017 5 μM, red LED light (3 W), 0.25 J/cm^2): 100%
- inhibition at 5 µM (EMT-6 tumor cells; EMT6, light or radiation study, 2 h, SL-017 5 μM, red LED light (3 W), 0.4 J/cm^2): 100%
- inhibition at 5 µM (EMT-6 tumor cells; EMT6, light or radiation study, 2 h, SL-017 5 μM, white LED light (9 W), 0.5 J/cm^2): 98.6%
- inhibition at 5 µM (EMT-6 tumor cells; EMT6, light or radiation study, 2 h, SL-017 5 μM, white LED light (9 W), 1.0 J/cm^2): 100%
- inhibition at 5 µM (EMT-6 tumor cells; EMT6, light or radiation study, 2 h, SL-017 5 μM, white LED light (9 W), 2.0 J/cm^2): 100%
- Number of Colonies (EMT-6 tumor cells; SL-017 5 μM, orange (rhodamine 6G) chemiluminescent light stick, 1 hour exposure): 86.3
- Number of Colonies (EMT-6 tumor cells; SL-017 5 μM, orange (rhodamine 6G) chemiluminescent light stick, 2 hour exposure): 187.3
- Number of Colonies (EMT-6 tumor cells; SL-017 5 μM, red LED light (3 W), 0.1 J/cm^2): 0
- Number of Colonies (EMT-6 tumor cells; SL-017 5 μM, red LED light (3 W), 0.25 J/cm^2): 0
- Number of Colonies (EMT-6 tumor cells; SL-017 5 μM, red LED light (3 W), 0.4 J/cm^2): 0
- Number of Colonies (EMT-6 tumor cells; SL-017 5 μM, white LED light (9 W), 0.5 J/cm^2): 1.8
- Number of Colonies (EMT-6 tumor cells; SL-017 5 μM, white LED light (9 W), 1.0 J/cm^2): 0
- Number of Colonies (EMT-6 tumor cells; SL-017 5 μM, white LED light (9 W), 2.0 J/cm^2): 0
- delay in hair re-growth (mouse skin; 2% SL-017 topical gel for 60 minutes, red LED light, 30 J/cm^2): 3 weeks
- re-growth of hair in the treated area versus controls (mouse skin; 2% SL-017 topical gel for 60 minutes, white LED light, 15 J/cm^2): no differences in the re-growth of hair
- delay in re-growth of hair (mouse skin; 2% SL-017 topical gel for 60 minutes, white LED light, 30 J/cm^2): < 1 week
- skin reaction post treatment at the treated site (mouse skin; mouse, in vivo): erythema is observed
